Experimental findings from patent publication US20260055097A9, “NRF2 PROTEIN DEGRADERS” (Ganymede Oncology, Inc., priority 2022, published 2026) are described below.

The assay deals with T1, Nrf2 (Homo sapiens, UniProt Q16236).
T1 sequence (Q16236 1-605): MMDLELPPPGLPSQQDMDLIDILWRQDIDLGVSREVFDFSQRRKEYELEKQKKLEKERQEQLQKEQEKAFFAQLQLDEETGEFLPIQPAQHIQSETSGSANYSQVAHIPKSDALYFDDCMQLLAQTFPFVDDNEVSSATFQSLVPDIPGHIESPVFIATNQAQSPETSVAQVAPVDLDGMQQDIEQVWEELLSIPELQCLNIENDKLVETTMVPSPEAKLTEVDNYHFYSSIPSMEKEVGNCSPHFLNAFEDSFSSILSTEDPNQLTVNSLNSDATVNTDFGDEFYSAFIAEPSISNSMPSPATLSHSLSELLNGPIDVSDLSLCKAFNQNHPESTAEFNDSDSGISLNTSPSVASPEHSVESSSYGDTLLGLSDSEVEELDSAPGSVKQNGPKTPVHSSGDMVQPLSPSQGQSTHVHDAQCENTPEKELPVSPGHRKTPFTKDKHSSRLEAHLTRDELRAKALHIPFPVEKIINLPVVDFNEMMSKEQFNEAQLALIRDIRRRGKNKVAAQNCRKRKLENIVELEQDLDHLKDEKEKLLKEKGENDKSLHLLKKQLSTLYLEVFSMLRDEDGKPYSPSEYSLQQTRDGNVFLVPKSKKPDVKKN
Put plainly: Nrf2 degradation in A549 HiBiT-Nrf2 cells, Nano-Glo HiBiT lytic detection (HiBiT readout). The class given is cell-based. Further details: host or cells: A549 HiBiT-Nrf2 cells (engineered line bought from Promega). As for the experimental part: A549 HiBiT-Nrf2 cells (Promega, Cat. No. CS3023219) were seeded into 384-well plates at cell density of 5,000 cells/well in 40 μL of cell culture medium (Ham's F-12 Nutrient Mix supplemented with 10% FBS and 1% antibiotic-antimycotic).
The next day, cells were treated with representative Compounds of the Disclosure and incubated for 6 h and 20 h at 37° C., 5% CO2. Staurosporine was used as a control.
At the end of incubation Nrf2 degradation (HiBiT readout) and cell viability (CellTiter-Glo readout) were determined. For HiBiT readout, Nano-Glo HiBiT Reagent mix (Promega, Cat. No. N3050) was added to wells, plates were incubated 2 min on an orbital shaker and incubated at room temperature in the dark for additional 30 minutes. At the end of incubation luminescence was measured using ultrasensitive luminescence mode (Envision, Perkin Elmer).
For orientation: With HiBiT, luminescence reflects the tagged protein that the partner subunit can reach.

Setting [1] is: 6 h, read-out: DC50 (nM) at 6 h.
Setting [2] is: 20 h, read-out: DC50 (nM) at 20 h.

Like-named read-outs stand apart in the source and are kept apart here. Some results are limits rather than exact numbers.

For orientation: DC50 means the midpoint of the concentration-degradation curve. Regarding `Cc1sc(NC(=O)Cc2cccc(OCCC(C)CCNc3cccc4c3C(=O)N(C3CCC(=O)NC3=O)C4=O)c2)nc1-c1ccc2c(c1)CCN2C(=O)C1CC1` (stereo not shown) [Cpd. No. 41, N-(4-(1-(cyclopropanecarbonyl)indolin-5-yl)-5-methylthiazol-2-yl)-2-(3-((5-((2-(2,6-dioxopiperidin-3-yl)-1,3-dioxoisoindolin-4-yl)amino)-3-methylpentyl)oxy)phenyl)acetamide], the DC50 under setting [1] was < 300 nM and the DC50 under setting [2] was < 300 nM.
With `Cc1sc(NC(=O)Cc2cccc(OCCC(C)(C)CCNc3cccc4c3C(=O)N(C3CCC(=O)NC3=O)C4=O)c2)nc1-c1ccc2c(c1)CCN2C(=O)C1CC1` (stereo not shown) [Cpd. No. 42, N-(4-(1-(cyclopropanecarbonyl)indolin-5-yl)-5-methylthiazol-2-yl)-2-(3-((5-((2-(2,6-dioxopiperidin-3-yl)-1,3-dioxoisoindolin-4-yl)amino)-3,3-dimethylpentyl)oxy)phenyl)acetamide], under setting [1], the DC50 is > 3000 nM.
As for `Cc1sc(NC(=O)Cc2cccc(OCCN(C)CCNc3cccc4c3C(=O)N(C3CCC(=O)NC3=O)C4=O)c2)nc1-c1ccc2c(c1)CCN2C(=O)C1CC1` (stereo not shown) [Cpd. No. 44, N-(4-(1-(cyclopropanecarbonyl)indolin-5-yl)-5-methylthiazol-2-yl)-2-(3-(2-((2-((2-(2,6-dioxopiperidin-3-yl)-1,3-dioxoisoindolin-4-yl)amino)ethyl)(methyl)amino)ethoxy)phenyl)acetamide], the DC50 runs as follows: under setting [1], < 300 nM; under setting [2], < 300 nM.
Consider `Cc1sc(NC(=O)Cc2cccc(OCCC(C)CCOc3cccc4c3C(=O)N(C3CCC(=O)NC3=O)C4=O)c2)nc1-c1ccc2c(c1)CCN2C(=O)C1CC1` (stereo not shown) [Cpd. No. 47, N-(4-(1-(cyclopropanecarbonyl)indolin-5-yl)-5-methylthiazol-2-yl)-2-(3-((5-((2-(2,6-dioxopiperidin-3-yl)-1,3-dioxoisoindolin-4-yl)oxy)-3-methylpentyl)oxy)phenyl)acetamide], for which the DC50 fell in the range of 300 to 3000 nM under setting [1] and 300 to 3000 nM under setting [2].
Regarding `Cc1sc(NC(=O)Cc2cccc(OCCC(C)(C)CCOc3cccc4c3C(=O)N(C3CCC(=O)NC3=O)C4=O)c2)nc1-c1ccc2c(c1)CCN2C(=O)C1CC1` (stereo not shown) [Cpd. No. 48, N-(4-(1-(cyclopropanecarbonyl)indolin-5-yl)-5-methylthiazol-2-yl)-2-(3-((5-((2-(2,6-dioxopiperidin-3-yl)-1,3-dioxoisoindolin-4-yl)oxy)-3,3-dimethylpentyl)oxy)phenyl)acetamide], the DC50 by setting is: under setting [1], > 3000 nM; under setting [2], 300 to 3000 nM.
Taken in the same sequence, the figures for `Cc1sc(NC(=O)Cc2cccc(OCCC(C)(C)CCNc3ccc4c(c3)C(=O)N(C3CCC(=O)NC3=O)C4=O)c2)nc1-c1ccc2c(c1)CCN2C(=O)C1CC1` (stereo not shown) [Cpd. No. 51, N-(4-(1-(cyclopropanecarbonyl)indolin-5-yl)-5-methylthiazol-2-yl)-2-(3-((5-((2-(2,6-dioxopiperidin-3-yl)-1,3-dioxoisoindolin-5-yl)amino)-3,3-dimethylpentyl)oxy)phenyl)acetamide] were < 300 nM and < 300 nM.
Take `Cc1sc(NC(=O)Cc2cccc(OCCC(C)CCNc3ccc4c(c3)C(=O)N(C3CCC(=O)NC3=O)C4=O)c2)nc1-c1ccc2c(c1)CCN2C(=O)C1CC1` (stereo not shown) [compound 50, N-(4-(1-(cyclopropanecarbonyl)indolin-5-yl)-5-methylthiazol-2-yl)-2-(3-((5-((2-(2,6-dioxopiperidin-3-yl)-1,3-dioxoisoindolin-5-yl)amino)-3-methylpentyl)oxy)phenyl)acetamide]: the DC50 is, setting by setting: under setting [1], 300 to 3000 nM; under setting [2], 300 to 3000 nM.
